Test results from patent US20230398130A1, “METHODS AND COMPOSITIONS FOR DIFFERENTIATING STEM CELLS” (Massachusetts Institute of Technology, priority 2020, published 2023).

Key:
ISC-enriched organoids [1] = experiment: Primary screen, 384-well 2.5-D organoid differentiation (ENR+CD, 6 days): basal lysozyme secretion (LYZ.NS); type: cell-based, murine; conditions: primary screen; for Dose.FC.LYZ.NS: FC vs plate median; for Z.LYZ.NS: standard z score; for SSMD.LYZ.NS: strictly standardized mean difference
Description: (§1) High-throughput screening.

ISC-enriched organoids [2] = experiment: Primary screen, 384-well 2.5-D organoid differentiation (ENR+CD, 6 days, Target Selective Inhibitor Library, vs whole-plate median): ATP (CellTiter-Glo 3D, CTG); conditions: primary screen; for Dose.FC.CTG: FC vs plate median; for Z.CTG: standard z score; for SSMD.CTG: strictly standardized mean difference
ISC-enriched organoids [3] = experiment: Primary screen, 384-well 2.5-D organoid differentiation (ENR+CD, 6 days): carbachol-induced lysozyme secretion (LYZ.S); type: cell-based, murine; conditions: primary screen; for Dose.FC.LYZ.S: FC vs plate median; for Z.LYZ.S: standard z score; for SSMD.LYZ.S: strictly standardized mean difference
Description: as §1

[4] = 1st of the 4 dose lines of the treatment (dose not given)
[5] = 2nd of the 4 dose lines of the treatment (dose not given)
[6] = 3rd of the 4 dose lines of the treatment (dose not given)
[7] = 4th of the 4 dose lines of the treatment (dose not given)

Row | SMILES | Dose.FC.LYZ.NS (ISC-enriched organoids [1]; Dose 0.08 uM) [log 2 fold change] | Z.LYZ.NS (ISC-enriched organoids [1]; Dose 0.08 uM) | Dose.FC.LYZ.NS (ISC-enriched organoids [1]; Dose 0.40 uM) [log 2 fold change] | Z.LYZ.NS (ISC-enriched organoids [1]; Dose 0.40 uM) | Dose.FC.LYZ.NS (ISC-enriched organoids [1]; Dose 2.00 uM) [log 2 fold change] | Z.LYZ.NS (ISC-enriched organoids [1]; Dose 2.00 uM) | Dose.FC.LYZ.NS (ISC-enriched organoids [1]; Dose 10.00 uM) [log 2 fold change] | Z.LYZ.NS (ISC-enriched organoids [1]; Dose 10.00 uM) | SSMD.LYZ.NS (ISC-enriched organoids [1]; [4]) | SSMD.LYZ.NS (ISC-enriched organoids [1]; [5]) | SSMD.LYZ.NS (ISC-enriched organoids [1]; [6]) | SSMD.LYZ.NS (ISC-enriched organoids [1]; [7]) | Dose.FC.CTG (ISC-enriched organoids [2]; Dose 0.08 uM) [log 2 fold change] | Z.CTG (ISC-enriched organoids [2]; Dose 0.08 uM) | Dose.FC.CTG (ISC-enriched organoids [2]; Dose 0.40 uM) [log 2 fold change] | Z.CTG (ISC-enriched organoids [2]; Dose 0.40 uM) | Dose.FC.CTG (ISC-enriched organoids [2]; Dose 2.00 uM) [log 2 fold change] | Z.CTG (ISC-enriched organoids [2]; Dose 2.00 uM) | Dose.FC.CTG (ISC-enriched organoids [2]; Dose 10.00 uM) [log 2 fold change] | Z.CTG (ISC-enriched organoids [2]; Dose 10.00 uM) | also measured
1 | CC(C)(C)c1cc(C(C)(C)C)c(NC(=O)c2c[nH]c3ccccc3c2=O)cc1O [Ivacaftor (VX-770)] | 0.099 | 0.864 | 0.127 | 1.109 | 0.082 | 0.717 | −0.142 | −1.240 | 0.882 | 0.825 | 0.582 | −1.167 | 0.234 | 0.558 | 0.145 | 0.347 | −0.148 | −0.354 | −0.470 | −1.123 | SSMD.CTG (ISC-enriched organoids [2]; [4]): 0.431; SSMD.CTG (ISC-enriched organoids [2]; [5]): 0.280; SSMD.CTG (ISC-enriched organoids [2]; [6]): −0.331; SSMD.CTG (ISC-enriched organoids [2]; [7]): −1.317; Dose.FC.LYZ.S (ISC-enriched organoids [3]; Dose 0.08 uM): 0.132 log 2 fold change; Dose.FC.LYZ.S (ISC-enriched organoids [3]; Dose 0.40 uM): 0.189 log 2 fold change; Dose.FC.LYZ.S (ISC-enriched organoids [3]; Dose 2.00 uM): 0.019 log 2 fold change; Dose.FC.LYZ.S (ISC-enriched organoids [3]; Dose 10.00 uM): −0.253 log 2 fold change; Z.LYZ.S (ISC-enriched organoids [3]; [4]): 0.853; Z.LYZ.S (ISC-enriched organoids [3]; [5]): 1.220; Z.LYZ.S (ISC-enriched organoids [3]; [6]): 0.124; Z.LYZ.S (ISC-enriched organoids [3]; [7]): −1.636; SSMD.LYZ.S (ISC-enriched organoids [3]; [4]): 0.705; SSMD.LYZ.S (ISC-enriched organoids [3]; [5]): 1.209; SSMD.LYZ.S (ISC-enriched organoids [3]; [6]): 0.148; SSMD.LYZ.S (ISC-enriched organoids [3]; [7]): −1.350
2 | Clc1ccc(N/N=C(\c2ccccc2)c2ccccn2)nc1 [JIB-04] | 0.178 | 1.549 | 0.030 | 0.264 | 0.006 | 0.048 | −0.153 | −1.330 | 0.941 | 0.239 | 0.042 | −0.845 | 0.254 | 0.607 | 0.108 | 0.258 | 0.092 | 0.219 | −0.181 | −0.433 | SSMD.CTG (ISC-enriched organoids [2]; [4]): 0.552; SSMD.CTG (ISC-enriched organoids [2]; [5]): 0.331; SSMD.CTG (ISC-enriched organoids [2]; [6]): 0.282; SSMD.CTG (ISC-enriched organoids [2]; [7]): −0.531; Dose.FC.LYZ.S (ISC-enriched organoids [3]; Dose 0.08 uM): 0.203 log 2 fold change; Dose.FC.LYZ.S (ISC-enriched organoids [3]; Dose 0.40 uM): 0.084 log 2 fold change; Dose.FC.LYZ.S (ISC-enriched organoids [3]; Dose 2.00 uM): −0.056 log 2 fold change; Dose.FC.LYZ.S (ISC-enriched organoids [3]; Dose 10.00 uM): −0.085 log 2 fold change; Z.LYZ.S (ISC-enriched organoids [3]; [4]): 1.312; Z.LYZ.S (ISC-enriched organoids [3]; [5]): 0.545; Z.LYZ.S (ISC-enriched organoids [3]; [6]): −0.365; Z.LYZ.S (ISC-enriched organoids [3]; [7]): −0.552; SSMD.LYZ.S (ISC-enriched organoids [3]; [4]): 0.895; SSMD.LYZ.S (ISC-enriched organoids [3]; [5]): 0.407; SSMD.LYZ.S (ISC-enriched organoids [3]; [6]): −0.339; SSMD.LYZ.S (ISC-enriched organoids [3]; [7]): −0.195
3 | O=C(Nc1ccccc1)N1CCN(c2nc(-c3ccccc3)ns2)CC1 [JNJ-1661010] | 0.122 | 1.066 | 0.075 | 0.653 | 0.103 | 0.897 | 0.047 | 0.406 | 0.805 | 0.332 | 0.332 | 0.237 | −0.094 | −0.225 | −0.262 | −0.625 | −0.055 | −0.131 | −0.145 | −0.346 | SSMD.CTG (ISC-enriched organoids [2]; [4]): −0.169; SSMD.CTG (ISC-enriched organoids [2]; [5]): −0.659; SSMD.CTG (ISC-enriched organoids [2]; [6]): −0.113; SSMD.CTG (ISC-enriched organoids [2]; [7]): −0.309; Dose.FC.LYZ.S (ISC-enriched organoids [3]; Dose 0.08 uM): 0.135 log 2 fold change; Dose.FC.LYZ.S (ISC-enriched organoids [3]; Dose 0.40 uM): 0.041 log 2 fold change; Dose.FC.LYZ.S (ISC-enriched organoids [3]; Dose 2.00 uM): −0.063 log 2 fold change; Dose.FC.LYZ.S (ISC-enriched organoids [3]; Dose 10.00 uM): −0.068 log 2 fold change; Z.LYZ.S (ISC-enriched organoids [3]; [4]): 0.873; Z.LYZ.S (ISC-enriched organoids [3]; [5]): 0.263; Z.LYZ.S (ISC-enriched organoids [3]; [6]): −0.408; Z.LYZ.S (ISC-enriched organoids [3]; [7]): −0.441; SSMD.LYZ.S (ISC-enriched organoids [3]; [4]): 0.612; SSMD.LYZ.S (ISC-enriched organoids [3]; [5]): 0.250; SSMD.LYZ.S (ISC-enriched organoids [3]; [6]): −0.454; SSMD.LYZ.S (ISC-enriched organoids [3]; [7]): −0.449
4 | Cc1ccc(NCCCc2ccccc2)c(N)c1 [JSH-23] | 0.054 | 0.474 | 0.079 | 0.688 | −0.002 | −0.017 | −0.046 | −0.399 | 0.371 | 0.452 | −0.012 | −0.250 | 0.193 | 0.462 | 0.230 | 0.548 | 0.074 | 0.176 | 0.046 | 0.110 | SSMD.CTG (ISC-enriched organoids [2]; [4]): 0.462; SSMD.CTG (ISC-enriched organoids [2]; [5]): 0.536; SSMD.CTG (ISC-enriched organoids [2]; [6]): 0.179; SSMD.CTG (ISC-enriched organoids [2]; [7]): 0.139; Dose.FC.LYZ.S (ISC-enriched organoids [3]; Dose 0.08 uM): 0.164 log 2 fold change; Dose.FC.LYZ.S (ISC-enriched organoids [3]; Dose 0.40 uM): 0.106 log 2 fold change; Dose.FC.LYZ.S (ISC-enriched organoids [3]; Dose 2.00 uM): 0.005 log 2 fold change; Dose.FC.LYZ.S (ISC-enriched organoids [3]; Dose 10.00 uM): −0.026 log 2 fold change; Z.LYZ.S (ISC-enriched organoids [3]; [4]): 1.064; Z.LYZ.S (ISC-enriched organoids [3]; [5]): 0.686; Z.LYZ.S (ISC-enriched organoids [3]; [6]): 0.032; Z.LYZ.S (ISC-enriched organoids [3]; [7]): −0.171; SSMD.LYZ.S (ISC-enriched organoids [3]; [4]): 1.259; SSMD.LYZ.S (ISC-enriched organoids [3]; [5]): 0.611; SSMD.LYZ.S (ISC-enriched organoids [3]; [6]): 0.030; SSMD.LYZ.S (ISC-enriched organoids [3]; [7]): −0.147
5 | COc1cc(-c2ncn(/C=C\C(=O)OC(C)C)n2)cc(C(F)(F)F)c1 [KPT-185] | −0.006 | −0.049 | 0.097 | 0.846 | −0.209 | −1.820 | −0.085 | −0.744 | −0.049 | 0.872 | −1.718 | −0.298 | 0.116 | 0.277 | 0.104 | 0.248 | −0.995 | −2.377 | −0.855 | −2.041 | SSMD.CTG (ISC-enriched organoids [2]; [4]): 0.296; SSMD.CTG (ISC-enriched organoids [2]; [5]): 0.270; SSMD.CTG (ISC-enriched organoids [2]; [6]): −1.033; SSMD.CTG (ISC-enriched organoids [2]; [7]): −0.723; Dose.FC.LYZ.S (ISC-enriched organoids [3]; Dose 0.08 uM): −0.015 log 2 fold change; Dose.FC.LYZ.S (ISC-enriched organoids [3]; Dose 0.40 uM): 0.220 log 2 fold change; Dose.FC.LYZ.S (ISC-enriched organoids [3]; Dose 2.00 uM): −0.322 log 2 fold change; Dose.FC.LYZ.S (ISC-enriched organoids [3]; Dose 10.00 uM): −0.153 log 2 fold change; Z.LYZ.S (ISC-enriched organoids [3]; [4]): −0.096; Z.LYZ.S (ISC-enriched organoids [3]; [5]): 1.420; Z.LYZ.S (ISC-enriched organoids [3]; [6]): −2.085; Z.LYZ.S (ISC-enriched organoids [3]; [7]): −0.989; SSMD.LYZ.S (ISC-enriched organoids [3]; [4]): −0.092; SSMD.LYZ.S (ISC-enriched organoids [3]; [5]): 0.978; SSMD.LYZ.S (ISC-enriched organoids [3]; [6]): −1.455; SSMD.LYZ.S (ISC-enriched organoids [3]; [7]): −0.431
